Measurements: PubChem BioAssay (NCI)
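Test compounds were applied to cells in 96-well plates for 48 hours at 5 doses. The concentration for 50% growth inhibition is given as GI50. TGI marks complete inhibition of growth.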

Legend:
Assay in all cases: DTP human tumour cell line panel, 48 h
786-0 renal = tested on: 786-0 renal
A498 renal = tested on: A498 renal
A549 NSCLC = tested on: A549 NSCLC
ACHN renal = tested on: ACHN renal
BT-549 breast = tested on: BT-549 breast
CAKI-1 renal = tested on: CAKI-1 renal
CCRF-CEM leukemia = tested on: CCRF-CEM leukemia
COLO 205 colon = tested on: COLO 205 colon
DU-145 prostate = tested on: DU-145 prostate
EKVX NSCLC = tested on: EKVX NSCLC
HCC-2998 colon = tested on: HCC-2998 colon
HCT-116 colon = tested on: HCT-116 colon
HCT-15 colon = tested on: HCT-15 colon
HL-60(TB) leukemia = tested on: HL-60(TB) leukemia
HOP-62 NSCLC = tested on: HOP-62 NSCLC
HS 578T breast = tested on: HS 578T breast
HT29 colon = tested on: HT29 colon
IGROV1 ovarian = tested on: IGROV1 ovarian
K-562 leukemia = tested on: K-562 leukemia
KM12 colon = tested on: KM12 colon
LOX IMVI melanoma = tested on: LOX IMVI melanoma
M14 melanoma = tested on: M14 melanoma
MALME-3M melanoma = tested on: MALME-3M melanoma
MCF7 breast = tested on: MCF7 breast
MDA-MB-231 breast = tested on: MDA-MB-231 breast
MDA-MB-435 = tested on: MDA-MB-435
MOLT-4 leukemia = tested on: MOLT-4 leukemia
NCI-H226 lung = tested on: NCI-H226 lung
NCI-H23 lung = tested on: NCI-H23 lung
NCI-H460 lung = tested on: NCI-H460 lung
NCI-H522 lung = tested on: NCI-H522 lung
NCI/ADR-RES ovarian = tested on: NCI/ADR-RES ovarian
OVCAR-3 ovarian = tested on: OVCAR-3 ovarian
OVCAR-4 ovarian = tested on: OVCAR-4 ovarian
OVCAR-5 ovarian = tested on: OVCAR-5 ovarian
OVCAR-8 ovarian = tested on: OVCAR-8 ovarian
PC-3 prostate = tested on: PC-3 prostate
RPMI-8226 leukemia = tested on: RPMI-8226 leukemia
RXF 393 renal = tested on: RXF 393 renal
SF-268 CNS = tested on: SF-268 CNS
SF-295 CNS = tested on: SF-295 CNS
SF-539 CNS = tested on: SF-539 CNS
SK-MEL-2 melanoma = tested on: SK-MEL-2 melanoma
SK-MEL-28 melanoma = tested on: SK-MEL-28 melanoma
SK-MEL-5 melanoma = tested on: SK-MEL-5 melanoma
SK-OV-3 ovarian = tested on: SK-OV-3 ovarian
SN12C renal = tested on: SN12C renal
SNB-19 CNS = tested on: SNB-19 CNS
SNB-75 CNS = tested on: SNB-75 CNS
SR leukemia = tested on: SR leukemia
SW-620 colon = tested on: SW-620 colon
T-47D breast = tested on: T-47D breast
TK-10 renal = tested on: TK-10 renal
U251 CNS = tested on: U251 CNS
UACC-257 melanoma = tested on: UACC-257 melanoma
UACC-62 melanoma = tested on: UACC-62 melanoma
UO-31 renal = tested on: UO-31 renal

## COc1ccc(CN2CCc3c(Sc4ccccc4)nc(N)nc3C2=O)c(OC)c1
786-0 renal
  GI50: 7.62 µM
  TGI: > 100 µM
A498 renal
  GI50: 7.22 µM
  TGI: 57.7 µM
A549 NSCLC
  GI50: 9.49 µM
  TGI: 45.8 µM
ACHN renal
  GI50: 7.25 µM
  TGI: 52 µM
BT-549 breast
  GI50: 2.3 µM
  TGI: 10.1 µM
CAKI-1 renal
  GI50: 3.4 µM
  TGI: 18.3 µM
CCRF-CEM leukemia
  GI50: 4.53 µM
  TGI: 52.9 µM
COLO 205 colon
  GI50: 14.8 µM
  TGI: 47.9 µM
DU-145 prostate
  GI50: 8.57 µM
  TGI: 32.4 µM
EKVX NSCLC
  GI50: 4.32 µM
  TGI: 19.9 µM
HCC-2998 colon
  GI50: 14.1 µM
  TGI: 30.4 µM
HCT-116 colon
  GI50: 3.9 µM
  TGI: 36.6 µM
HCT-15 colon
  GI50: 8.32 µM
  TGI: 39.2 µM
HL-60(TB) leukemia
  GI50: 1.56 µM
  TGI: 5.32 µM
HOP-62 NSCLC
  GI50: 18 µM
  TGI: 73.4 µM
HS 578T breast
  GI50: 16.3 µM
  TGI: > 100 µM
HT29 colon
  GI50: 7.61 µM
  TGI: 23.6 µM
IGROV1 ovarian
  GI50: 11 µM
  TGI: 28.9 µM
K-562 leukemia
  GI50: 4.3 µM
  TGI: > 100 µM
KM12 colon
  GI50: 8.67 µM
  TGI: 32.7 µM
LOX IMVI melanoma
  GI50: 7.92 µM
  TGI: 24.5 µM
M14 melanoma
  GI50: 9.61 µM
  TGI: 28.1 µM
MALME-3M melanoma
  GI50: 1.58 µM
  TGI: 8.87 µM
MCF7 breast
  GI50: 5.65 µM
  TGI: 75.9 µM
MDA-MB-231 breast
  GI50: 11 µM
  TGI: 76.9 µM
MDA-MB-435
  GI50: 3.57 µM
  TGI: 16.3 µM
MOLT-4 leukemia
  GI50: 3 µM
  TGI: 16.1 µM
NCI-H226 lung
  GI50: 8.55 µM
  TGI: 27.1 µM
NCI-H23 lung
  GI50: 4.06 µM
  TGI: 38.4 µM
NCI-H460 lung
  GI50: 9.06 µM
  TGI: > 100 µM
NCI-H522 lung
  GI50: 3.05 µM
  TGI: 17.7 µM
NCI/ADR-RES ovarian
  GI50: 4.13 µM
  TGI: 29.9 µM
OVCAR-3 ovarian
  GI50: 4.25 µM
  TGI: 25.7 µM
OVCAR-4 ovarian
  GI50: 4.57 µM
  TGI: 18.3 µM
OVCAR-5 ovarian
  GI50: 39 µM
  TGI: > 100 µM
OVCAR-8 ovarian
  GI50: 6.23 µM
  TGI: 30.5 µM
PC-3 prostate
  GI50: 4.41 µM
  TGI: 29.1 µM
RPMI-8226 leukemia
  GI50: 1.89 µM
  TGI: 7.26 µM
RXF 393 renal
  GI50: 2.65 µM
  TGI: 9.74 µM
SF-268 CNS
  GI50: 6.21 µM
  TGI: 26 µM
SF-295 CNS
  GI50: 8.35 µM
  TGI: 22.7 µM
SF-539 CNS
  GI50: 14.4 µM
  TGI: 36.8 µM
SK-MEL-2 melanoma
  GI50: 10.1 µM
  TGI: 32.6 µM
SK-MEL-28 melanoma
  GI50: 8.91 µM
  TGI: 26.8 µM
SK-MEL-5 melanoma
  GI50: 7.35 µM
  TGI: 22.5 µM
SK-OV-3 ovarian
  GI50: 21.4 µM
  TGI: 84.6 µM
SN12C renal
  GI50: 8.82 µM
  TGI: > 100 µM
SNB-19 CNS
  GI50: 15.4 µM
  TGI: 55.3 µM
SNB-75 CNS
  GI50: 5.58 µM
  TGI: 19.7 µM
SR leukemia
  GI50: 2.95 µM
  TGI: 22.6 µM
SW-620 colon
  GI50: 6.15 µM
  TGI: 41.2 µM
T-47D breast
  GI50: 3.99 µM
  TGI: 34.5 µM
TK-10 renal
  GI50: 5 µM
  TGI: 19.2 µM
U251 CNS
  GI50: 8.01 µM
  TGI: 27.4 µM
UACC-257 melanoma
  GI50: 5.99 µM
  TGI: 22.2 µM
UACC-62 melanoma
  GI50: 6.78 µM
  TGI: 21.4 µM
UO-31 renal
  GI50: 1.45 µM
  TGI: 12.8 µM
